Source: ChEMBL document CHEMBL4138231 (Eur J Med Chem, 2018)
Active and inactive are the calls of the source. No cut-off for these calls is given here.

Legend:
K562 = assay: Antiproliferative activity against human K562 cells after 72 hrs by CCK8 assay; assay type: functional
Huh-7 = assay: Antiproliferative activity against human HuH7 cells after 72 hrs by CCK8 assay; assay type: functional
NCI-H1975 = assay: Antiproliferative activity against human NCI-H1975 cells after 72 hrs by CCK8 assay; assay type: functional
[1] = molecular target: Serine/threonine-protein kinase PLK2 (Homo sapiens, UniProt Q9NYY3); assay: Inhibition human recombinant full length GST-tagged Plk2 expressed in baculovirus expression system after 1 hr by FRET-based Z'-Lyte assay
Serine/threonine-protein kinase PLK2, sequence (Q9NYY3 whole entry, the tested form may be a part): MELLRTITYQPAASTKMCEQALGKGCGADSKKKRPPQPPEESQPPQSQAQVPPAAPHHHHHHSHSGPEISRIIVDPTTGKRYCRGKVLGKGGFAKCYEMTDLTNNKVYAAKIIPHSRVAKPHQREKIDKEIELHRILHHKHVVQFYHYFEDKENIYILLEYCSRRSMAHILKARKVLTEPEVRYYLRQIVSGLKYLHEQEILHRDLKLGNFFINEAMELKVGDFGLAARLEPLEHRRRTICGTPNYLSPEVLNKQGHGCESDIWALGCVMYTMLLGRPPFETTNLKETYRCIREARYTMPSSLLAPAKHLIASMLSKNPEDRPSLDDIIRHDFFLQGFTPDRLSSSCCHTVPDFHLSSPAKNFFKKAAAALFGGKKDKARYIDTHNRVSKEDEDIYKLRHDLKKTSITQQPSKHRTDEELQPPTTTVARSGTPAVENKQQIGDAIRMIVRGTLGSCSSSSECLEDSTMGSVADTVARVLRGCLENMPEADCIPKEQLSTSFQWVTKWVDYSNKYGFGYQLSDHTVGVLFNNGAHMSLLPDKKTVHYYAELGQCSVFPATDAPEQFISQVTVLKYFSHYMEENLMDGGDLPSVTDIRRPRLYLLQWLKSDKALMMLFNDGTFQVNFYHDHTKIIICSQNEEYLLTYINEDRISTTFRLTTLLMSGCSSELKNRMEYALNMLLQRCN

[2] = molecular target: Serine/threonine-protein kinase PLK3 (Homo sapiens, UniProt Q9H4B4); assay: Inhibition human recombinant GST-tagged Plk3 catalytic domain (58 to 340 residues) expressed in baculovirus expression system after 1 hr by FRET-based Z'-Lyte assay
Serine/threonine-protein kinase PLK3, sequence (Q9H4B4 whole entry, the tested form may be a part): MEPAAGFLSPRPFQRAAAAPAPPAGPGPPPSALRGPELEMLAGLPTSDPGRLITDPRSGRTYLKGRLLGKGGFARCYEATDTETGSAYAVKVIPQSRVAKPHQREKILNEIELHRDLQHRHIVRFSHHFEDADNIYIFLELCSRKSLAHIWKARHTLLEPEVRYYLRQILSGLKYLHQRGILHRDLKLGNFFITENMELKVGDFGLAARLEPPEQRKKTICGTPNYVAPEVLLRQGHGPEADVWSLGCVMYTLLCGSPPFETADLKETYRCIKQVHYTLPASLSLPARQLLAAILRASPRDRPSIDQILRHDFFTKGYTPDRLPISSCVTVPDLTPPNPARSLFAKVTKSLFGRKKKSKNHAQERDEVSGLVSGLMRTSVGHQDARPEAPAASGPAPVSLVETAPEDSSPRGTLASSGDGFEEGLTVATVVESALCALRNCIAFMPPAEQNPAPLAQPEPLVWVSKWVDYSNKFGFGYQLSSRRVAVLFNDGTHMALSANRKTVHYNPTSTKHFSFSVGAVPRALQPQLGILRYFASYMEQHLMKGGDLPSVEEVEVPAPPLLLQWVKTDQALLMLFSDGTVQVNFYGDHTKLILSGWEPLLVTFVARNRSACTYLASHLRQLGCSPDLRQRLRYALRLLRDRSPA

MCF7 = assay: Antiproliferative activity against human MCF7 cells after 72 hrs by CCK8 assay; assay type: functional
HeLa = assay: Antiproliferative activity against human HeLa cells after 72 hrs by CCK8 assay; assay type: functional
A549 = assay: Antiproliferative activity against human A549 cells after 72 hrs by CCK8 assay; assay type: functional

CC[C@@H]1C(=O)N(C)c2cnc(-n3ccc4cc(F)ccc43)nc2N1C1CCCC1
GI50 (K562; K562, 72 h): 21.2 µM
GI50 (Huh-7; Huh-7, 72 h): 16 µM
GI50 (NCI-H1975; NCI-H1975, 72 h): 46.5 µM
IC50 [1]: 969 nM
IC50 [2]: > 20 µM
GI50 (MCF7): inactive
GI50 (HeLa): inactive
GI50 (A549): inactive

CCNC(=O)c1ccc2c(ccn2-c2ncc3c(n2)N(c2ccn(C)n2)C(CC)C(=O)N3C)c1 (racemic)
GI50 (K562; K562, 72 h): 12.8 µM
GI50 (Huh-7; Huh-7, 72 h): 20.3 µM
GI50 (NCI-H1975): inactive
IC50 [1]: 243 nM
IC50 [2]: > 10 µM
GI50 (MCF7; MCF7, 72 h): 13.2 µM
GI50 (HeLa): 11.1 µM
GI50 (A549; A549, 72 h): 21.7 µM

CCCCNS(=O)(=O)c1ccc(Nc2ncc3c(n2)N(C2CCCC2)[C@H](CC)C(=O)N3C)cc1
GI50 (K562; K562, 72 h): 0.412 µM
GI50 (Huh-7; Huh-7, 72 h): 0.225 µM
GI50 (NCI-H1975; NCI-H1975, 72 h): 1.61 µM
IC50 [1]: 19.9 nM
GI50 (MCF7; MCF7, 72 h): 0.459 µM
GI50 (HeLa): 0.451 µM
GI50 (A549; A549, 72 h): 0.477 µM

CCCCNC(=O)c1ccc2c(ccn2-c2ncc3c(n2)N(c2ccn(C)n2)C(CC)C(=O)N3C)c1 (racemic)
GI50 (K562; K562, 72 h): 14.1 µM
GI50 (Huh-7; Huh-7, 72 h): 8.67 µM
GI50 (NCI-H1975; NCI-H1975, 72 h): 12 µM
IC50 [1]: 159 nM
IC50 [2]: > 10 µM
GI50 (MCF7; MCF7, 72 h): 8.99 µM
GI50 (HeLa): 4.26 µM
GI50 (A549; A549, 72 h): 37.3 µM

CCC1C(=O)N(C)c2cnc(Nc3ccc(S(=O)(=O)NC)cc3)nc2N1c1ccn(C)n1 (racemic)
GI50 (K562; K562, 72 h): 2.89 µM
GI50 (Huh-7; Huh-7, 72 h): 11.9 µM
GI50 (NCI-H1975; NCI-H1975, 72 h): 18.8 µM
IC50 [1]: 71.5 nM
GI50 (MCF7; MCF7, 72 h): 3.75 µM
GI50 (HeLa): 2.2 µM
GI50 (A549; A549, 72 h): 12.6 µM

CCCCNS(=O)(=O)c1ccc(Nc2ncc3c(n2)N(c2ccn(C)n2)C(CC)C(=O)N3C)cc1 (racemic)
GI50 (K562; K562, 72 h): 4.24 µM
GI50 (Huh-7; Huh-7, 72 h): 3.75 µM
GI50 (NCI-H1975; NCI-H1975, 72 h): 4.12 µM
IC50 [1]: 191 nM
GI50 (MCF7; MCF7, 72 h): 5.78 µM
GI50 (HeLa): 4.32 µM
GI50 (A549; A549, 72 h): 10.6 µM

CC[C@@H]1C(=O)N(C)c2cnc(-n3ccc4cc(C(=O)NC)ccc43)nc2N1C1CCCC1
GI50 (K562; K562, 72 h): 0.705 µM
GI50 (Huh-7; Huh-7, 72 h): 0.842 µM
GI50 (NCI-H1975; NCI-H1975, 72 h): 1.37 µM
IC50 [1]: 8.6 nM
GI50 (MCF7; MCF7, 72 h): 1 µM
GI50 (HeLa): 0.768 µM
GI50 (A549; A549, 72 h): 2.2 µM

CC[C@@H]1C(=O)N(C)c2cnc(Nc3ccc(S(N)(=O)=O)cc3)nc2N1C1CCCC1
GI50 (K562; K562, 72 h): 0.47 µM
GI50 (Huh-7; Huh-7, 72 h): 1.3 µM
GI50 (NCI-H1975; NCI-H1975, 72 h): 5.29 µM
IC50 [1]: 10.2 nM
GI50 (MCF7; MCF7, 72 h): 0.394 µM
GI50 (HeLa): 0.317 µM
GI50 (A549; A549, 72 h): 3.39 µM

CC[C@@H]1C(=O)N(C)c2cnc(Nc3ccc(S(=O)(=O)NC)cc3)nc2N1C1CCCC1
GI50 (K562; K562, 72 h): 0.222 µM
GI50 (Huh-7; Huh-7, 72 h): 0.099 µM
GI50 (NCI-H1975; NCI-H1975, 72 h): 1.41 µM
IC50 [1]: 3.4 nM
GI50 (MCF7; MCF7, 72 h): 0.151 µM
GI50 (HeLa): 0.148 µM
GI50 (A549; A549, 72 h): 0.183 µM

CC[C@@H]1C(=O)N(C)c2cnc(-n3ccc4cc(C(N)=O)ccc43)nc2N1C1CCCC1
GI50 (K562; K562, 72 h): 1.85 µM
GI50 (Huh-7; Huh-7, 72 h): 3.09 µM
GI50 (NCI-H1975; NCI-H1975, 72 h): 3.38 µM
IC50 [1]: 28.5 nM
GI50 (MCF7; MCF7, 72 h): 1.83 µM
GI50 (HeLa): 0.674 µM
GI50 (A549; A549, 72 h): 4.35 µM

CCCNS(=O)(=O)c1ccc(Nc2ncc3c(n2)N(c2ccn(C)n2)C(CC)C(=O)N3C)cc1 (racemic)
GI50 (K562; K562, 72 h): 2.26 µM
GI50 (Huh-7; Huh-7, 72 h): 8.88 µM
GI50 (NCI-H1975; NCI-H1975, 72 h): 21.7 µM
IC50 [1]: 190 nM
GI50 (MCF7; MCF7, 72 h): 3 µM
GI50 (HeLa): 2.67 µM
GI50 (A549; A549, 72 h): 15 µM

CCCNC(=O)c1ccc2c(ccn2-c2ncc3c(n2)N(c2ccn(C)n2)C(CC)C(=O)N3C)c1 (racemic)
GI50 (K562; K562, 72 h): 8.27 µM
GI50 (Huh-7; Huh-7, 72 h): 7.28 µM
GI50 (NCI-H1975; NCI-H1975, 72 h): 11 µM
IC50 [1]: 207 nM
IC50 [2]: > 10 µM
GI50 (MCF7; MCF7, 72 h): 6.42 µM
GI50 (HeLa): 6.16 µM
GI50 (A549): inactive

CCC1C(=O)N(C)c2cnc(-n3ccc4cc(C(N)=O)ccc43)nc2N1c1ccn(C)n1 (racemic)
GI50 (K562; K562, 72 h): 31.3 µM
GI50 (Huh-7): inactive
GI50 (NCI-H1975): inactive
IC50 [1]: 384 nM
IC50 [2]: > 10 µM
GI50 (MCF7): inactive
GI50 (HeLa): 27.4 µM
GI50 (A549; A549, 72 h): 39.5 µM

CCC1C(=O)N(C)c2cnc(Nc3ccc(S(N)(=O)=O)cc3)nc2N1c1ccn(C)n1 (racemic)
GI50 (K562): inactive
GI50 (Huh-7): inactive
GI50 (NCI-H1975): inactive
IC50 [1]: 121 nM
GI50 (MCF7; MCF7, 72 h): 36.6 µM
GI50 (HeLa): 12.6 µM
GI50 (A549): inactive

CC[C@@H]1C(=O)N(C)c2cnc(Nc3ccc(S(=O)(=O)Nc4ccccc4)cc3)nc2N1C1CCCC1
GI50 (K562; K562, 72 h): 4.18 µM
GI50 (Huh-7; Huh-7, 72 h): 2.79 µM
GI50 (NCI-H1975; NCI-H1975, 72 h): 6 µM
IC50 [1]: 54.4 nM
GI50 (MCF7; MCF7, 72 h): 5.43 µM
GI50 (HeLa): 5.14 µM
GI50 (A549; A549, 72 h): 4.15 µM

CCC1C(=O)N(C)c2cnc(-n3ccc4cc(C(=O)NC)ccc43)nc2N1c1ccn(C)n1 (racemic)
GI50 (K562; K562, 72 h): 13.3 µM
GI50 (Huh-7; Huh-7, 72 h): 13.2 µM
GI50 (NCI-H1975; NCI-H1975, 72 h): 35.7 µM
IC50 [1]: 218 nM
IC50 [2]: > 10 µM
GI50 (MCF7; MCF7, 72 h): 35.4 µM
GI50 (HeLa): 6.33 µM
GI50 (A549; A549, 72 h): 43.1 µM

CCC1C(=O)N(C)c2cnc(Nc3ccc(S(=O)(=O)NCC(C)C)cc3)nc2N1c1ccn(C)n1 (racemic)
GI50 (K562; K562, 72 h): 7.3 µM
GI50 (Huh-7; Huh-7, 72 h): 8.52 µM
GI50 (NCI-H1975; NCI-H1975, 72 h): 15 µM
IC50 [1]: 311 nM
GI50 (MCF7; MCF7, 72 h): 8.35 µM
GI50 (HeLa): 5.31 µM
GI50 (A549; A549, 72 h): 31.6 µM
